Reference: patent US11458138B2 (Novartis AG, priority 2017, dated 2022)

Assays:
[1] = test system: Phospho-YAP (SER127) in HaCaT cells; assay: pYAP HTRF Assay (HaCaT Cells); format: cell-based, human; settings: Homo sapiens, 2 hours
Procedure, shortened: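 HaCaT cells at 5500 cells/well were cultured 48 hours at 37° C, then treated with compound for 2 hours. Phospho-YAP (Ser127) was detected by HTRF after an overnight (20 hrs) room-temperature incubation, read as the 665 nm/620 nm ratio.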

[2] = test system: YAP nuclear translocation in HaCaT cells; assay: YAP Translocation Assay (HaCaT Cells); format: cell-based, human; settings: Homo sapiens, 24 hours
Procedure, shortened: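 HaCaT cells (20,000/well) in DMEM + 10% FBS were plated overnight at 37° C, then exposed to compound for 24 h at 37° C. Cells were fixed with PFA, permeabilized with 0.1% Triton/1.5% BSA and imaged by high-content imaging.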

[3] = biological target: LATS1 (Homo sapiens (Human), UniProt O95835); assay: LATS1 biochemical assay (Table 1A, Compound Examples 1-290; method in the earlier part)
[4] = test system: Phospho-YAP (Ser127) in JHH-5 cells; assay: pYAP HTRF Assay (JHH-5 cells); format: cell-based; settings: 2 hours
Procedure, shortened: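 JHH-5 cells (24000/well) cultured 24 h at 37 °C in William's E with 10% FBS, then exposed to compounds for 2 h at 37 °C. After lysis, pYAP d2/cryptate antibodies incubated 18 h at room temperature; HTRF ratio 665/620 nm ×10000.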

[5] = biological target: Human LATS2 kinase domain protein (Homo sapiens (Human), UniProt Q9NRM7); assay: LATS2 Biochemical Caliper Assay (Compound Examples 1-290); settings: 400 micromolar ATP
Description: Human LATS2 kinase domain protein was purchased from Carnabio (catalogue number 01-124), which harbors the catalytic domain of amino acids 553-1088, and was co-purified with human His-tagged MOBKL1A (NP_775-739). 5 microlitre of enzyme buffer, 100 nL of compounds and 5 microlitre of localising aid buffer were added into 384-well plates. […] The plates were incubated at 25° C. for 3 hours. 40 microlitre of stop buffer with 25 mM EDTA (NanoSyn) was added to each well to terminate the reaction. Localising aids and products were separated electrophoretically using the microfluidic-based Caliper Labchip 3000 Drug Discovery System (Caliper Life Sciences). Plates were read using blue laser excitation and green fluorescence detection and quantified by fluorescence intensity.

[6] = test system: human corneal endothelial cells (CECs); assay: Human corneal endothelial cell population expansion: endothelial cell density in vitro; format: cell-based; settings: 10 micromolar compound, X-VIVO15 medium, 10 days
Description: (§1) Cells were cultured at 37° C. in 5% CO2.
(§2) For each compound, two sets of cultures were generated. A first set of cultures was fixed in 4% PFA for 20 minutes at room temperature after cells isolated from the cornea had attached to the cell culture dish (typically 24 h after cell plating). A second set of cultures was fixed in 4% PFA for 20 minutes at room temperature 10 days after the first one.
(§3) To measure cell density in all fixed cultures, the number of nuclei stained with Sytox Orange (ThermoFisher) were counted per surface area as follows: fixed cell cultures fixed were permeabilized in a solution of 0.3% Triton X-100 (Sigma-Aldrich). Cells were then labeled in a solution of 0.5 micromolar of Sytox Orange in PBS for 5 minutes at room temperature. Nuclei were counted under a Zeiss epifluorescence microscope. The expansion factor was then determined by calculating the ratio of the expanded population of cells to population of seeded cells.

[7] = test system: human corneal endothelial cells (CECs); assay: Human corneal endothelial cell population expansion: fold cell expansion; format: cell-based; settings: 10 micromolar compound, X-VIVO15 medium, 10 days, ratio of expanded to seeded cells
Description: as §1, §2, §3

[8] = test system: human limbal stem cells (LSCs); assay: Human limbal stem cell population expansion: percentage of p63alpha-positive cells; format: cell-based; settings: 10 micromolar, XVIVO15 medium
Description: as §1
as §2, with “temperature” for “temperature 10 days”, “being cultured for two passages. Cells were passaged when they reached 90-100% confluence.” for “the first one.”
In order to observe that the expanded cell population expressed p63alpha, this was measured by immunohistochemistry as follows. The fixed cell cultures were permeabilized and blocked in a blocking solution of 0.3% Triton X-100 (Sigma-Aldrich) and 3% donkey serum in PBS for 30 minutes. Cells were then labeled with primary antibody in the blocking solution for 12 hours at 4° C. Primary antibody used was p63alpha from Cell Signalling. Samples were washed in PBS three times and donkey-raised secondary antibody Alexa Fluor 488 (Molecular Probes) at 1:500 dilution were applied for 30 minutes at room temperature. Cell nuclei were then labeled in a solution of 0.5 micromolar of Sytox Orange (ThermoFisher) in PBS for 5 minutes at room temperature.
To evaluate the percentage of p63alpha-positive cells, the number of cells labeled by the anti-p63alpha antibody was counted and the total number of cells was determined by counting the number of nuclei stained by Sytox Orange. The proportion of p63alpha-positive cells was then determined by calculating the percentage of Sytox-orange-positive nuclei that also expressed p63alpha.

[9] = test system: human limbal stem cells (LSCs); assay: Human limbal stem cell population expansion: expansion factor; format: cell-based; settings: 10 micromolar, XVIVO15 medium, two passages, ratio of expanded to seeded cells
Description: as §1
as §2, with “temperature” for “temperature 10 days”, “being cultured for two passages. Cells were passaged when they reached 90-100% confluence.” for “the first one.”
To evaluate cell expansion ratios, nuclei were counted using a Zeiss LSM 880 confocal microscope. The expansion factor was then determined by calculating the ratio of the expanded population of cells to population of seeded cells.

[10] = biological target: Human LATS1 kinase domain protein (Homo sapiens (Human), UniProt O95835); assay: LATS1 Biochemical Caliper Assay (Compound Examples 291-335); settings: Caliper EZ Reader
Description: The LATS1 biochemical Caliper assay was performed as following.
Human LATS1 kinase domain protein was purchased from Carnabio (catalogue number 01-123; lot 15CBS-0098D). Human LATS1, catalytic domain [589-1130(end) amino acids of accession number NP_004681.1] was co-expressed as N-terminal GST-fusion protein (90 kDa) with human His-tagged MOBKL1A [1-216(end) amino acids of accession number NP_775739.1] using baculovirus expression system. GST-LATS1 was purified by using glutathione sepharose chromatography. The substrate (Fluo-SGKtide; Peptide for LATS1; lot BS-41067) has the following sequence: 5-Fluo-Nva-[…]-amide (SEQ ID NO: 27) x TFA and was purchased from Biosyntan.
The reaction is performed in reaction buffer containing 50 mM Hepes pH 7,5; 0.02% Tween20; 0.02% BSA; 1 mM DTT; 10 uM Na3VO4 and 10 mM beta-Glycerolphosphat and fresh added 1 mM MgCl2 and qsp H2O.
The substrate solution (2× conc.) in Reaction Buffer contains 300 μM ATP and 4 μM Fluo-SGKtide.
The kinase solution (2× conc.) in Reaction Buffer contains 20 nM LATS1 kinase. 4.5 μL of 2× conc. Kinase solution, 50 nL of 1.8 mM compounds and 4.5 μL of substrate solution were added into 384-well plates black small volume from Greiner and incubated at 32° C. for 1 hour. 15 μL of stop buffer containing 100 mM Hepes pH 7,5; 5% DMSO; 0.1% Coating reagent; 10 mM EDTA and 0.02% Brij35 and qsp H2O to each well to terminate the reaction.
Substrates and products were electrophoretically separated using the microfluidic-based Caliper EZ Reader System (Caliper Life Sciences) using a 12 sipper chip (cat 760404). The separation takes place in Coating Buffer (idem Stop buffer) and containing 0.1% Coating reagent CR3 and 0.5% coating reagent CR8 (Perkin Elmer).
Plates were read using a LED with an excitation at 488 nm and a detection at 520 nm to 5 quantify the fluorescence intensity.

Sequence of LATS1 (O95835 whole entry, looked up): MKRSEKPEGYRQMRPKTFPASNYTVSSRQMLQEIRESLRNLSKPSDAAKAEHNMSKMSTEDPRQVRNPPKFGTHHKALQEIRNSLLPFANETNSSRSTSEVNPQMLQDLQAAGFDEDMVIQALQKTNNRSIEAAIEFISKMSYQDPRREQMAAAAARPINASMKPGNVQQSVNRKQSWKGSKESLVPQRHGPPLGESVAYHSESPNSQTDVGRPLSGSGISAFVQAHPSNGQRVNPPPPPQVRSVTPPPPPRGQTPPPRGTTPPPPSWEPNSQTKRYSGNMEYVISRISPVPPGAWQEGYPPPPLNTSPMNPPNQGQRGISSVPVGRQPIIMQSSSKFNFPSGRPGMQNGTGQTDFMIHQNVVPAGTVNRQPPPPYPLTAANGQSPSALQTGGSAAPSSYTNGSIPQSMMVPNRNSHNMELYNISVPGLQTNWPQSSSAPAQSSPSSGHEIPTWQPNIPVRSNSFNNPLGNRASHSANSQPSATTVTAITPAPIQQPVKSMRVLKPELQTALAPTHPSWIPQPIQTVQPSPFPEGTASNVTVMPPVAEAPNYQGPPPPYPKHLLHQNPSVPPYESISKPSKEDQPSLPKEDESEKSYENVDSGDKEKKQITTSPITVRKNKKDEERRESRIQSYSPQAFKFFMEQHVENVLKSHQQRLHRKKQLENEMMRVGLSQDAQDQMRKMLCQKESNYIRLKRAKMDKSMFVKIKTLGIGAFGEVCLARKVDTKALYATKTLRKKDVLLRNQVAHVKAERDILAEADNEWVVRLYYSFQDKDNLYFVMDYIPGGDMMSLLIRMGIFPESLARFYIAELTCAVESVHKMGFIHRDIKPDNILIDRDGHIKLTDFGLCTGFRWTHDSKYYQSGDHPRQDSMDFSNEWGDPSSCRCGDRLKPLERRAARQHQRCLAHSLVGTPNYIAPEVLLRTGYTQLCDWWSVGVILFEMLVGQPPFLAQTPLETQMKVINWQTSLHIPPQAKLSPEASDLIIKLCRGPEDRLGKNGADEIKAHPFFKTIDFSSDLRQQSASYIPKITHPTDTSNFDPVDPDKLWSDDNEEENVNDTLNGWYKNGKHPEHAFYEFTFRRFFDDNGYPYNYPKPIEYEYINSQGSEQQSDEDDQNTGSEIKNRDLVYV
Sequence of LATS1 (Q7L9L4 whole entry partner, looked up): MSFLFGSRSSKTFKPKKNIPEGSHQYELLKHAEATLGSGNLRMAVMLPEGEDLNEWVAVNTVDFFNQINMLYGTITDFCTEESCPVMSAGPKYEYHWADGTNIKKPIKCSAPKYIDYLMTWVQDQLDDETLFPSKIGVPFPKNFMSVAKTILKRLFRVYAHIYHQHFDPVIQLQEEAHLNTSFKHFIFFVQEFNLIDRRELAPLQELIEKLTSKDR
Sequence of Human LATS2 kinase domain protein (Q9NRM7 553-1088): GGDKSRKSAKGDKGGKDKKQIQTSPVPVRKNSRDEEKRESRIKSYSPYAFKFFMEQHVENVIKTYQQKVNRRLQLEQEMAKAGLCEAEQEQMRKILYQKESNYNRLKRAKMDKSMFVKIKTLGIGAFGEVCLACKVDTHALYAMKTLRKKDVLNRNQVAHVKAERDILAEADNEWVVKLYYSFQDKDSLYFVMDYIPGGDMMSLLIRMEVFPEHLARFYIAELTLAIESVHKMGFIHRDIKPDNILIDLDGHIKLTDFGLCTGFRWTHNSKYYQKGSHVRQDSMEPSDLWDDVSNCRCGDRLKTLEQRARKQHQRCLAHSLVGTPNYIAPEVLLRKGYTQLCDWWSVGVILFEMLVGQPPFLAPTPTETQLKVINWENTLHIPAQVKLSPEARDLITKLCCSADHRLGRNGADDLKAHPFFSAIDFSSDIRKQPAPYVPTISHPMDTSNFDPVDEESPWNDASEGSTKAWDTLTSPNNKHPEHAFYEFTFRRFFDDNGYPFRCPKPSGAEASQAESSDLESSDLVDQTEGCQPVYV
Sequence of Human LATS2 kinase domain protein (Q7L9L4 whole entry partner, the tested form may be a part): as the sequence (Q7L9L4 whole entry partner, looked up) above
Sequence of Human LATS1 kinase domain protein (O95835 whole entry, looked up, the tested form may be a part): as the sequence (O95835 whole entry, looked up) above
Sequence of Human LATS1 kinase domain protein (Q7L9L4 whole entry partner, looked up, the tested form may be a part): as the sequence (Q7L9L4 whole entry partner, looked up) above

| IC50 [3] [nM] | IC50 [4] [nM] | IC50 [5] [nM] | IC50 [10] [nM] | SMILES | IC50 [1] [nM] | EC50 [2] [nM] | Endothelial Cell density in vitro [6] [cells/mm^2] | Expansion factor (Fold Cell expansion) [7] | Percentage of p63a-positive cells [8] [%] | Expansion factor [9] |
| --- | --- | --- | --- | --- | --- | --- | --- | --- | --- | --- |
| 1 | > 10000 | 1 | – | CC(Nc1nc(-c2ccncc2)nc2cnccc12)C(F)(F)F (stereo not shown) [Example 4, 2-(pyridin-4-yl)-N-(1,1,1-trifluoropropan-2-yl)pyrido[3,4-d]pyrimidin-4-amine] | 1150 | 2530 | – | – | – | – |
| 2 | 2300 | – | – | CC(C)N(C)c1nc(-c2ccncc2)nc2cnccc12 [Example 5, N-methyl-N-(propan-2-yl)-2-(pyridin-4-yl)pyrido[3,4-d]pyrimidin-4-amine] | 2190 | 2480 | 3911 | 408 | – | – |
| 1 | 2600 | 8 | – | CC(C)Nc1nc(-c2ccncc2)nc2cnccc12 [Example 6, N-(propan-2-yl)-2-(pyridin-4-yl)pyrido[3,4-d]pyrimidin-4-amine] | 1240 | 1700 | 3378 | 391 | 93 | 1275 |
| 71 | – | – | – | O[C@H]1CCC[C@@H]1Nc1nc(-c2ccncc2)nc2cnccc12 [Example 33, (1S,2S)-2-{[2-(pyridin-4-yl)pyrido[3,4-d]pyrimidin-4-yl]amino}cyclopentan-1-ol] | > 20000 | > 20000 | 25 | 12 | 6 | 39 |
| 1 | 1100 | 4 | – | CC(C)(C)Nc1nc(-c2ccncc2)nc2cnccc12 [Example 59, N-tert-butyl-2-(pyridin-4-yl)pyrido[3,4-d]pyrimidin-4-amine] | 19 | 341 | – | – | – | – |
| 1 | 600 | 2 | – | FC(F)(F)C1(Nc2nc(-c3ccncc3)nc3cnccc23)CCC1 [Example 62, 2-(pyridin-4-yl)-N-[1-(trifluoromethyl)cyclobutyl]pyrido[3,4-d]pyrimidin-4-amine] | 40 | 538 | 3301 | 402 | 95 | 1712 |
| 5 | 3300 | 30 | – | OCC1(Nc2nc(-c3ccncc3)nc3cnccc23)CCC1 [Example 101, (1-{[2-(pyridin-4-yl)pyrido[3,4-d]pyrimidin-4-yl]amino}cyclobutyl)methanol] | 5400 | > 20000 | – | – | – | – |
| 9 | – | 50 | – | Cn1nccc1-c1nc(NC2(C)CCC2)c2ccncc2n1 [Example 186, 2-(1-methyl-1H-pyrazol-5-yl)-N-(1-methylcyclobutyl)pyrido[3,4-d]pyrimidin-4-amine] | – | > 20000 | – | – | – | – |
| 4 | – | 34 | – | FC(F)(F)C1(Nc2nc(-c3ccncc3)cc3cnccc23)CC1 [Example 288, 3-(pyridin-4-yl)-N-(1-(trifluoromethyl)cyclopropyl)-2,6-naphthyridin-1-amine] | 18300 | 7420 | 2779 | 302 | 95 | 1241 |
| 4 | – | – | – | CC1(Nc2cc(-c3ccncc3)cc3cnccc23)CC1 [Example 289, N-(1-methylcyclopropyl)-7-(pyridin-4-yl)isoquinolin-5-amine] | 34100 | 6500 | 1421 | 84 | 80 | 681 |
| 4 | 3000 | 8 | – | FC(F)(F)C1CN(c2nc(-c3ccncc3)nc3cnccc23)CCN1 (stereo not shown) [Example 290, 2-(pyridin-4-yl)-4-(3-(trifluoromethyl)piperazin-1-yl)pyrido[3,4-d]pyrimidine] | – | 1390 | 2071 | 221 | 90 | 1051 |
| – | 1000 | – | 0.7 | CC(C)(N)C(C)(C)Nc1nc(-c2ccncc2)nc2cnccc12 [Example 320, 2,3-dimethyl-N^2-(2-(pyridin-4-yl)pyrido[3,4-d]pyrimidin-4-yl)butane-2,3-diamine] | – | – | – | – | – | – |

| SMILES | IC50 [3] [nM] | IC50 [4] [nM] | IC50 [5] [nM] | IC50 [10] [nM] | IC50 [1] [nM] | EC50 [2] [nM] | Endothelial Cell density in vitro [6] [cells/mm^2] | Expansion factor (Fold Cell expansion) [7] | Percentage of p63a-positive cells [8] [%] | Expansion factor [9] |
| --- | --- | --- | --- | --- | --- | --- | --- | --- | --- | --- |
| CC(C)(COCCO)Nc1nc(-c2ccncc2)nc2cnccc12 [Example 11, 2-(2-methyl-2-{[2-(pyridin-4-yl)pyrido[3,4-d]pyrimidin-4-yl]amino}propoxy)ethan-1-ol] | 3 | – | 12 | – | 646 | 1430 | – | – | – | – |
| CC1CCCC1Nc1nc(-c2ccncc2)nc2cnccc12 (stereo not shown) [Example 17, N-(2-methylcyclopentyl)-2-(pyridin-4-yl)pyrido[3,4-d]pyrimidin-4-amine] | 5 | – | – | – | 606 | 2630 | 1628 | 187 | 86 | 976 |
